# In patent publication US8592401B2, “Methods and compounds for vitamin D therapy” (Proventiv Therapeutics, LLC, priority 2007, dated 2013):
# Where two headings read alike, the source gives them in different places.
# Columns and labels:
# healthy male humans = settings: cited from earlier work
# [1] = test system: rats having adenine-induced kidney failure; set-up: species or system Sprague Dawley rats; settings: rat, in vivo, iv
# Method: (§1) Soc. Neph., 17; 107-112]. After 4 weeks, normal diet was given to all animals. A control group receiving normal diet during the entire course of the study was used as normal control animals. After the 4 weeks of adenine diet treatment, animals were dosed i.v. 3×/week for 2 or 8 weeks with calcitriol or 1,25-dihydroxyvitamin D2 at 0.01, 0.05, 0.1, 0.25 and 0.5 mg/kg. Serum, plasma kidney and parathyroid gland were collected after 2 and 8 weeks. iPTH and FGF23 in plasma and serum, respectively, were measured using a commercial Elisa kit. Serum calcium was measured using an ORTHO-CLINICAL VITROS 250 chemistry system or an o-cresolphthalein complexone-based assay. Serum phosphorus was measured using an ORTHO-CLINICAL VITROS 250 chemistry system or an ammonium molybdate-based assay. Fibronectin 1 was measured by real-time PCR from cDNA isolated from kidney.
# (§2) These findings indicate that L25-dihydroxyvitamin D2 appears to be less likely to cause calcemia than 1,25-dihydroxyvitamin D3 at doses that have equivalent efficacy.
# [2] = test system: rats having adenine-induced kidney failure; assay: iPTH levels in rats having adenine-induced kidney failure; assay type: in vivo, Sprague Dawley rats; settings: for suppression of serum PTH (iPTH) levels: adenine treated animals, i.v. 3×/week, after two weeks of dosing
# Method: as §1, with “3×/week for 2 or 8 weeks with calcitriol or 1,25-dihydroxyvitamin D2 at 0.01, 0.05, 0.1, 0.25 and 0.5 mg/kg.” left out
# For reference, PTH values are also shown for animals in the study fed a normal diet (without adenine).
# as §2
# renal FN1 = assay: Renal FN1 (fibronectin 1) expression by real-time PCR in adenine rats; assay type: in vivo, Sprague Dawley rats; set-up: extent of suppression of renal FN1 expression, compared to calcitriol-treated animals: dose or concentration left out as unconfirmed; settings: after 12 days of treatment; for suppression of renal FN1 expression, comparison of the two compounds: 0.1 mg/kg
# Method: as §1
# Caco-2 cells = settings: cited from earlier work
# [3] = test system: rats having adenine-induced kidney failure; assay: Serum phosphorous in rats having adenine-induced kidney failure; assay type: in vivo, Sprague Dawley rats
# Method: as §1
# [4] = cited from earlier work
# [5] = test system: markers of bone metabolism; settings: in culture; cited from earlier work
# DBP = molecular target: T1, DBP (Homo sapiens, UniProt P02774); settings: cited from earlier work
# T1 sequence (P02774 17-474): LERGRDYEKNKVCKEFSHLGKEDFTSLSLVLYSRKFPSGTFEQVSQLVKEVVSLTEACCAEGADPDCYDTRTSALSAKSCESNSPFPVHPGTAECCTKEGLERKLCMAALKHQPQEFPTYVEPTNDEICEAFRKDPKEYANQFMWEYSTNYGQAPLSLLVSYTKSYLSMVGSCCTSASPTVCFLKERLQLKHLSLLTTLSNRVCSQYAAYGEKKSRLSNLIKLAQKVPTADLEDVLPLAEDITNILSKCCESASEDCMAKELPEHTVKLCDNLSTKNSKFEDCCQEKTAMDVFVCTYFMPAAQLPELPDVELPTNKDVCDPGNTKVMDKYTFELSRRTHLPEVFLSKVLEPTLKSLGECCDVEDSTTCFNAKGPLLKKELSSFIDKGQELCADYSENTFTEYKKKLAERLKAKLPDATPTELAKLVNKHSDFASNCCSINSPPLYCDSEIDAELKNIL
# bone resorption = settings: in vivo; cited from earlier work
# [6] = Stability of compounds in human intestine microsomes; assay type: in vitro ADME; settings: microsomes 22 mg/ml, NADPH-generating system, 60 min, 37° C.
# Method: Equal parts of 0.1 M phosphate buffer (pH 7.4), NADPH, G-6-P, and G-6-P dehydrogenase were mixed to create a NADPH-generating system, and the final concentration of NADPH, G-6-P, and G-6-P dehydrogenase were 0.8 mM, 8 mM and 0.8 U/ml.
# 1,25-dihydroxyvitamin D2 and calcitriol were added in to the NADPH-generating system. The final concentrations of the two vitamin D compounds were each […]. A reaction was initiated by the addition of the human intestine microsomes (22 mg/ml) after a 5 min pre-incubation of the reaction at 37° C. After incubation for 60 min, the reaction was terminated by addition of cold 100% acetonitrile. An aliquot of the samples was injected into HPLC to determine the % remaining of the compound.
# [7] = test system: ESRD human patients undergoing chronic hemodialysis; assay type: in vivo
# Description: Up to 100 ESRD (End Stage Renal Disease) human patients undergoing chronic hemodialysis are studied in a multicenter, double-blind, placebo-controlled study. The selected patients reside in two major metropolitan areas within the continental U.S., have ages between 20 and 75 years, and have a history of secondary hyperparathyroidism. They have been on hemodialysis for at least four months, have a normal (or near normal) serum albumin, and have controlled serum phosphorus (often by using oral calcium phosphate binders).
# On admission to the study, each patient is assigned at random to one of two treatment groups. One of these groups receives two consecutive 12-week courses of therapy with 1,25-dihydroxyvitamin D2; the other group receives one 12-week course of therapy with 1,25-dihydroxyvitamin D2 without interruption, by one 12-week course of placebo therapy. Each patient discontinues any 1α,25-dihydroxyvitamin D3 therapy for eight weeks prior to initiating 1,25-dihydroxyvitamin D2 therapy. Throughout this eight-week washout (or control) period and the two subsequent 12-week treatment periods, patients are monitored weekly for serum calcium and phosphorus. Serum intact PTH is monitored weekly or biweekly, and bone-specific serum markers, serum vitamin D metabolites, serum albumin, blood chemistries, hemoglobin and hematocrit are monitored at selected intervals.
# During the study, patients undergo routine hemodialysis (three times per week) using a 1.24 mM calcium dialysate and ingest calcium phosphate binders (such as calcium carbonate or calcium acetate) in an amount sufficient to keep serum phosphate maintained in a range of 3.5 to 5.5 mg/dL. Patients who develop persistent mild hypercalcemia or mild hyperphosphatemia during the treatment periods reduce their 1,25-dihydroxyvitamin D2 dosage. […] Such patients are monitored at twice-weekly intervals until the serum calcium or phosphorus is normalized, and resume 1,25-dihydroxyvitamin D2 dosing.
# [8] = test system: subjects with low serum 1,25-dihydroxyvitamin D; assay: Study in subjects with low serum 1,25-dihydroxyvitamin D (Example 1); assay type: in vivo, human
# Method: 1,25-dihydroxyvitamin D2 is used as a treatment for subjects with low serum 1,25-dihydroxyvitamin D in a study involving 50 adults, ages 18-85 years.
# The subjects have serum 1,25-dihydroxyvitamin D levels below 20 pg/dL and complete an eight-week baseline period and then 24 weeks of therapy with orally administered 1,25-dihydroxyvitamin D2.
# The initial dose of 1,25-dihydroxyvitamin D2 is 1.0 μg, with increases in steps of 0.5 μg/day permitted after four weeks. The maximum dosage is limited to 5.0 μg/day of 1,25-dihydroxyvitamin D2. Subjects are monitored at regular intervals for plasma iPTH, serum calcium and phosphorus, 24-hour and fasting urinary calcium, bone-specific serum markers, plasma total 1,25-dihydroxyvitamin D2 and routine blood chemistries and hematologies.
# C2BBe1 cells = assay: Alkaline phosphatase and CYP24 in C2BBe1 cells (real-time PCR); assay type: cell-based; settings: 100 nM, 10 nM, 8 hours at 37° C.
# Method: C2BBe1 cells were treated with […], 100 nM, and 10 nM 1,25-dihydroxyvitamin D2 and calcitriol. Cells were incubated for 8 hours at 37° C. The cells were then lysed in 1 ml of TRIzol reagent. RNA was isolated from cell lysates through phase separation, as per the manufacturer's instructions (INVITROGEN). After cDNA synthesis, real-time PCR was used to quantify alkaline phosphatase and CYP24.
structure (smiles),measurement,setting,value
"C=C1CC[C@H](O)C/C1=C/C=C1\CCC[C@]2(C)[C@@H]([C@H](C)CCCC(C)C)CC[C@@H]12 [Vitamin D3, cholecalciferol]",time of peak of 25-hydroxyvitamin D3 levels,"healthy male humans; 50,000 IU",14 days
"C=C1CC[C@H](O)C/C1=C/C=C1\CCC[C@]2(C)[C@@H]([C@H](C)/C=C/[C@H](C)C(C)C)CC[C@@H]12 [Vitamin D2, ergocalciferol]",course of 25-hydroxyvitamin D2 levels,"healthy male humans; 50,000 IU",fell early and were not different from baseline at 14 days
same,potency relative to Vitamin D3,healthy male humans; healthy male humans,less than one-third as potent
"C=C1/C(=C\C=C2/CCC[C@]3(C)[C@@H]([C@H](C)CCCC(C)(C)O)CC[C@@H]23)C[C@@H](O)C[C@@H]1O [calcitriol, 1α,25-dihydroxyvitamin D3]",doses showing significant elevation of serum calcium,[1]; Sprague Dawley,greater than 0.10 μg/kg
same,inhibition at 0.0001 mg/kg,"[2]; Rattus norvegicus, read-out: PTH inhibition",~13.6%
same,suppression of serum PTH (iPTH) levels,[2],in a dose dependant manner can suppress serum PTH levels
same,"suppression of renal FN1 expression, comparison of the two compounds",renal FN1,No difference in suppression
same,stimulation of calcium transport,Caco-2 cells,934%
same,elevation of serum phosphorous,"[3]; rat, in vivo, iv",significant elevation of phosphorous at the two highest doses
"C[C@H](/C=C/[C@H](C)C(C)(C)O)[C@H]1CC[C@H]2/C(=C/C=C3C[C@@H](O)C[C@H](O)C3)CCC[C@]12C [19-nor-1,25-dihydroxyvitamin D2]",half-life,[4]; healthy patients,4 to 6 h
same,half-life,[4]; patients with Stage 4 CKD,20 h
same,half-life,[4]; patients with chronic renal failure,15 h
same,"effects on VDR expression, suppression of cell proliferation, osteocalcin and alkaline phosphatase activity versus 1,25-dihydroxyvitamin D3",[5],indistinguishable
same,"affinity for DBP compared to 1,25-dihydroxyvitamin D3",DBP,3 fold lower
same,stimulation of calcium transport,Caco-2 cells,did not show a significant effect
same,"potency in promoting bone resorption relative to 1,25-dihydroxyvitamin D3",bone resorption,approximately 10 fold less potent
"C=C1/C(=C\C=C2/CCC[C@]3(C)[C@@H]([C@H](C)/C=C/[C@H](C)C(C)(C)O)CC[C@@H]23)C[C@@H](O)C[C@@H]1O [1,25-dihydroxyvitamin D2]",doses showing significant elevation of serum calcium,[1],greater than 0.05 μg/kg
same,metabolic stability (% remaining) in human intestinal microsomes,[6],metabolically unstable
same,suppression of serum PTH (iPTH) levels,[2],in a dose dependant manner can suppress serum PTH levels
same,PTH inhibition,[2]; dose of 0.05 μg/kg,about 82.7%
same,mean serum PTH relative to pretreatment levels,[7]; after initiation of dosing,less than 50 % of pretreatment levels
same,mean serum PTH in the active group,[7]; end of the second 12-week treatment period,remained controlled
same,hypercalcemia in patients exhibiting excessive suppression of serum PTH,"[7]; human, in vivo",transient mild hypercalcemia is observed
same,"DBP binding compared with 1,25-dihydroxyvitamin D3",DBP,no significant difference
same,"suppression of renal FN1 expression, comparison of the two compounds",renal FN1,No difference in suppression
same,"extent of suppression of renal FN1 expression, compared to calcitriol-treated animals",renal FN1,significantly greater
same,"serum 1,25-dihydroxyvitamin D levels between doses",[8],within the patients' normal historical physiological range
same,induction of IAP (alkaline phosphatase) activity,C2BBe1 cells,not a potent inducer of IAP activity
same,elevation of serum phosphorous,"[3]; adenine rats, i.v. 3×/week, doses 0.01-0.5",significance only at the highest dose
